Data as given in patent US20110059869A1, “Method for Increasing Enzymatic Reactivity” (RIKEN, priority 2008, published 2011).

Columns and labels:
[1] = system: λ phage cDNA library; test: Preparation of a λ phage cDNA library, titer from plaques; settings: samples prepared under trehalose (+) 0.6 M vs trehalose (−)
Method: Double-stranded cDNA/RNA hybrid samples that had been immobilized on streptoavidin beads and synthesized under trehalose (+) and trehalose (−) conditions were employed to prepare a λ phage cDNA library. Following synthesis of double-stranded cDNA, the beads were washed with blunting buffer (T4 DNA polymerase buffer). Blunting reaction solution (1× T4 DNA polymerase buffer, 0.6 M trehalose, 0.1 mM dNTP mix, T4 DNA polymerase 5 units) was added and the mixture was incubated for 20 minutes at 12° C. Following the reaction, the beads were washed three times with 0.1× TE, and then washed one more time with 1× ligation buffer. Ligation reaction solution (1× T4 DNA ligation buffer, 0.6 M trehalose, 5′ end BamHI overhang adapter 2 ug, T4 DNA ligase 800 units) was added and the mixture was reacted overnight at 16° C. The beads were washed three times with 0.1× TE and then washed once with 1× XhoI. Restriction enzyme XhoI reaction solution (1× XhoI buffer, 0.6 M trehalose, XhoI 40 units) was added and the mixture was incubated for three hours at 37° C. The beads were recovered with a magnetic stand and the supernatant containing the cDNA that had been released by XhoI cutting was separated. […] A 10 uL quantity and a 100 uL quantity were admixed to the C600/MgSO4 suspensions to infect them with phage. […] The plaques that appeared were counted and the titer was calculated (Scheme 3).

[2] = system: restriction enzyme BceAI; test: BceAI cleavage of biotin-labeled 300 bp DNA fragments adsorbed to streptavidin beads; type: biochemical
Method: Biotin-labeled 300 by DNA fragments adsorbed (bound) to streptavidin beads were reacted with the restriction enzyme BceAI and the final concentration of the trehalose that was added to the system was examined as follows.
PCR was conducted with biotin-labeled primers (Seq. ID Nos. 1 and 2) on 300 by DNA fragments using pFLCIII vector as template. The fragments were cleaved at the type II restriction enzyme site BceAI, releasing 50 by DNA fragments that were detected. Paramagnetic streptavidin beads were washed with accessory 1× binding buffer, recovered with a magnetic stand to remove the supernatant, and then suspended in the same buffer. Equal volumes of the PCR product-containing solution and 2× binding buffer were mixed, the bead solution was added, and the mixture was gently stirred with top to bottom inversion and rotation for 15 minutes at room temperature to induce adsorption. The magnetic stand was used to recover the sample adsorption beads, which were washed three times with 1× binding buffer. They were then washed once with 1× BceAI buffer. […] The reaction solutions were added to washed beads, mixed, and reacted for 3 hours at 37° C. The beads were recovered with the magnetic stand and cleaved with restriction enzyme. The supernatant containing the cDNA that had been released was reacted with proteinase K, treated with phenol chloroform, and precipitated from ethanol. […]

[3] = system: restriction enzyme PstI; test: PstI cleavage reaction on a spherical bead surface (DNA fragment III); type: biochemical; settings: DNA adsorbed to beads, 0.6 M trehalose vs none
Method: Biotin-labeled DNA fragment III (Seq. ID No. 6, Scheme 4) was cleaved at the restriction enzyme PstI site on the surface of streptavidin beads and the 104 by DNA fragment released was examined. DNA fragment III (500 ng) and 2× binding buffer were admixed in equal volume quantities, a solution of beads suspended in 1× binding buffer was added, and the mixture was gently stirred with top to bottom inversion and rotation for 15 minutes at room temperature to induce adsorption. The beads onto which the sample had adsorbed were recovered with a magnetic stand, washed three times with 1× binding buffer, and washed once with 1× PstI buffer. Two types of reaction solution (1× PstI buffer, 1× BSA restriction enzyme 40 units) were prepared: a trehalose (+) system to which D(+)-trehalose was added to a final concentration of 0.6 M, and a trehalose (−) system to which no trehalose was added. Each of the reaction solutions was admixed to beads that had been washed and the mixtures were reacted for three hours at 37° C. The beads were recovered with the magnetic stand and cleaved with restriction enzyme. […] The precipitate of DNA fragments obtained was dissolved in 1× TE (pH 7.5) and analyzed with Bioanalyzer DNA 1000 assay (Agilent Technologies).

[4] = system: restriction enzyme PstI; test: PstI cleavage reaction in solution (DNA fragment III); type: biochemical; settings: normal reaction solution, with vs without 0.6 M trehalose; three hours
Method: Biotin-labeled DNA fragment III (Seq. ID No. 6, Scheme 4) was cleaved at the restriction enzyme PstI site in solution and the 104 by DNA fragment that was released was examined. Two forms of reaction solution (DNA fragment III 500 ng, 1× PSTI buffer, 1× BSA, restriction enzyme 40 units) were prepared: a total of 50 uL trehalose (+) reaction solution to which D(+)-trehalose was added to a final concentration of 0.6 M, and a total of 50 uL trehalose (−) reaction solution, to which no trehalose was added. The reaction solutions were reacted for 3 hours at 37° C., a proteinase K reaction was conducted, phenol chloroform treatment was carried out, and precipitation from ethanol was conducted. The precipitate of the DNA fragment obtained was dissolved in 1× TE (pH 7.5) and analyzed with Bioanalyzer DNA 1000 assay (Agilent Technologies).

SMILES: OC[C@H]1O[C@H](O[C@H]2O[C@H](CO)[C@@H](O)[C@H](O)[C@H]2O)[C@H](O)[C@@H](O)[C@@H]1O [trehalose, D(+)-trehalose]
- titer of the phage library [1]: clearly better results
- change in yield of 50 by fragments with trehalose concentration ([2]; 0 M, 0.3 M, 0.6 M, and 0.8 M trehalose): No change was observed beyond 0.6 M
- yield of 50 by fragments released by cleavage ([2]; trehalose added vs not added, beads, 3 hours at 37° C.): increased
- yield of released DNA fragment [3]: higher yield
- yield of released DNA fragment [4]: the same yield
